Earlier results in the CATMoS acute toxicity set (Mansouri et al. 2021).
“And” between values parts separate entries of the source, which are not always exact repeats. Identical values can stand only once.

Assay: rat acute oral toxicity
Details: in vivo

SMILES	LD50
CN(C)CCCN(C)[C@H]1CC[C@H]2[C@@H]3CC=C4C[C@@H](O)CC[C@]4(C)[C@H]3CC[C@]12C	470 mg/kg
CCN1CCCC(Nc2cc(C)nc(N=C(N)Nc3ccc(Cl)c(Cl)c3)n2)C1 (stereo not given)	1040 mg/kg
ClC1=C(Cl)[C@]2(Cl)[C@H]3[C@H]([C@@H]4O[C@]4(Cl)[C@@H]3Cl)[C@@]1(Cl)C2(Cl)Cl (racemic)	457 mg/kg
CCCC/C=C\CCCCCCOC(C)=O	13400 mg/kg
CC(C)(C)c1cc(C(=O)O)cc(C(C)(C)C)c1O	1410 mg/kg
CCCCOC(=O)c1ccccc1C(=O)OCc1ccccc1	2330 mg/kg
Cc1ccc(OCC(O)CNC(C)(C)C)c2oc(=O)ccc12 (stereo not given)	676 mg/kg
CC(CC(c1ccccc1)c1ccccc1)NC(C)(C)C (stereo not given)	465 mg/kg
CCN(CCC(=O)OC)c1ccccc1	2450 mg/kg
CC(=O)CC(C)(C)N(C)N=O	2100 mg/kg
CN(C)CCCn1c2c(c3ccccc31)CCCCCC2	775 mg/kg
CN(C)CCCn1c2ccccc2c(=O)c2c([N+](=O)[O-])cccc21	53.3 mg/kg
CCC(=O)C(CC(C)N(C)C)(c1ccccc1)c1ccccc1 (stereo not given)	86 mg/kg
CCOC(=O)c1ccccc1	2100 mg/kg
CCC(C)CO (stereo not given)	4170 mg/kg
O=[N+]([O-])c1ccc(CCl)cc1	1810 mg/kg
CCC(CC)CO	1850 mg/kg
CCN(N=O)C(=O)NC(N)=O	1050 mg/kg
CCCCCCOC(=O)CC(C(=O)OCCCCCC)S(=O)(=O)O (stereo not given)	1750 mg/kg
COC(CNCc1ccccc1)c1cccc(C(F)(F)F)c1 (stereo not given)	1720 mg/kg
CN1[C@@H]2CC[C@H]1C[C@@H](OC(c1ccccc1)c1ccccc1)C2	940 mg/kg
CCOC(=O)Nc1ccc2c(c1)N(C(=O)CCN(CC)CC)c1ccccc1CC2	138 mg/kg
CN(C)[SiH](N(C)C)N(C)C	594 mg/kg
CCCCOCCCC	7400 mg/kg
C[N+](C)(N)CCCl	3400 mg/kg

SMILES	LD50
CCCCCCC(C)=CC#N	1720 mg/kg
Cc1ccc(S(=O)(=O)OCCCl)cc1	498 mg/kg
CCCCCCCCCCCCCCCC[N+](C)(C)CC(=O)[O-]	1620 mg/kg
O=[N+]([O-])c1ccccc1-c1ccccc1	1230 mg/kg
NC(=S)c1c(Cl)cccc1Cl	757 mg/kg
Cc1cc2[nH]c(C(F)(F)F)nc2cc1Br	77 mg/kg
CC12CCC(C(Br)C1=O)C2(C)C (stereo not given)	4450 mg/kg
COC(=O)C1=C(C)NC(C)=C(C(=O)O[C@H]2CCN(Cc3ccccc3)C2)[C@H]1c1cccc([N+](=O)[O-])c1	105 mg/kg
CCCCCCCCC=CCCCCCCCC(=O)OCC1CO1 (stereo not given)	3520 mg/kg
Oc1cc(O)cc(Sc2cc(O)cc(O)c2)c1	4290 mg/kg
CCOP(=S)(OCC)O/N=C(\C#N)c1ccccc1	300 mg/kg
Cc1ccc(CC(C)N)cc1 (stereo not given)	150 mg/kg
FC(F)(F)c1nc2c(Cl)c(Cl)c(Br)cc2[nH]1	2.78 mg/kg
O=[N+]([O-])c1ccc(O)c(CNCCCl)c1	25 mg/kg
OCCC(O)Cl (stereo not given)	110 mg/kg
C=CCNP(=O)(OC=C(Cl)Cl)OC1CCCCC1 (stereo not given)	100 mg/kg
COC(=O)C1CCCCC1	3880 mg/kg
COC1=C(OC)C(=O)C(CCCCCCCCCCO)=C(C)C1=O	10000 mg/kg
O=CCC1CC2CC1C1CCCC21 (stereo not given)	500 mg/kg
O=C(Nc1ccc(Nc2ccc(NC(=O)c3ccccc3)c3c2C(=O)c2ccccc2C3=O)c2c1C(=O)c1ccccc1C2=O)c1ccccc1	19300 mg/kg
S=c1[nH]c2ccc(Cl)cc2[nH]1	150 mg/kg
NS(=O)(=O)c1ccccc1	991 mg/kg
COP(=S)(OC)SCSc1cc(Cl)cc(Cl)c1	443 mg/kg
CCCCCCOCCOC(=O)CCC(=O)OCCOCCCCCC	4280 mg/kg
CCCCCCCCCCCCCOCCOCCOCCOCCOCCOCCO	1400 mg/kg

SMILES	LD50
Oc1ccc(Nc2ccccc2)cc1	3300 mg/kg
CC(SCC(=O)O)c1ccc2c(c1)Cc1ccccc1-2 (stereo not given)	1900 mg/kg
Nc1cc(Cl)ccc1O	690 mg/kg
CC(=O)OCC1=CC[C@@H]2C[C@H]1C2(C)C	2600 mg/kg
OCCOCCN1CCN(C(c2ccccc2)c2ccccc2)CC1	840 mg/kg
CCCCOCCC(=O)O	5190 mg/kg
C[N+](C)(C)Cc1ccccc1	25 mg/kg
O=P(CCCl)(OCCCl)OCCCl	880 mg/kg
C=CCc1ccccc1OCC(O)CNC(C)C (stereo not given)	590 mg/kg
CCC(CN)=C(c1ccccc1)c1ccccc1	148 mg/kg
OCCN1CCN(CCC=C2c3ccccc3Sc3ccc(Cl)cc32)CC1	660 mg/kg
C=CC=C	5480 mg/kg
CC(=C\c1ccccc1)/C=C1/SC(=S)N(CC(=O)O)C1=O	5.3 mg/kg
CCOc1ccccc1OCC(O)CNCCNCC(O)COc1ccccc1OCC (stereo not given)	560 mg/kg
COCCC#N	4390 mg/kg
CCC(=O)c1ccc(N)cc1	177 mg/kg
O=C1C=CCCC1	220 mg/kg
CC(=O)OC(c1ccccc1)C(Cl)(Cl)Cl (stereo not given)	6800 mg/kg
CCCN(CCC)C(=O)C(CCC(=O)NCCCOC(=O)Cc1c(C)n(C(=O)c2ccc(Cl)cc2)c2ccc(OC)cc12)NC(=O)c1ccccc1 (stereo not given)	370 mg/kg
O=C1CCc2cc(CCCCN3CCN(c4ccccc4Cl)CC3)ccc2N1	500 mg/kg
CCN(CCC#N)c1cccc(C)c1	3710 mg/kg
CC(C)=NOC(=O)Nc1ccccc1	1540 mg/kg
Cc1ccc(Cl)c(Nc2ccccc2C(=O)O)c1Cl	100 mg/kg
Cc1ncc(COP(=O)(O)O)c(C=O)c1O	5900 mg/kg
CCCCCCC#COC(=O)OCC	2850 mg/kg

SMILES	LD50
CCCCC1(COC(=O)CCC(=O)O)C(=O)N(c2ccccc2)N(c2ccccc2)C1=O	1700 mg/kg
Cc1onc(-c2c(F)cccc2Cl)c1C(=O)N[C@@H]1C(=O)N2[C@@H]1SC(C)(C)[C@@H]2C(=O)O	11000 mg/kg
Clc1ccc(N=Nc2ccc(NCCCN3CCCCC3)c3c2CCCC3)cc1	1120 mg/kg
Nc1cc(Cl)cc(C(=O)O)c1Cl	3500 mg/kg
O=Cc1ccc(Cl)cc1	1580 mg/kg
FC(F)(F)C(F)(F)C(F)(F)C(F)(F)C(F)(F)C(F)(F)C(F)(F)C[n+]1ccccc1	1160 mg/kg
CCNc1nc(Cl)nc(NCC)n1	971 mg/kg
O=C(O)C(Cl)Cl	5280 mg/kg and 2820 mg/kg
CCCCC(CC)C(=O)OCCOCCOCCOC(=O)C(CC)CCCC (stereo not given)	31000 mg/kg
COCC(=O)NP(=O)(OC)SC (stereo not given)	200 mg/kg
Nc1ccc2c(S(=O)(=O)O)cccc2c1S(=O)(=O)O	5430 mg/kg
Cc1ncc2cscc2c1O	1500 mg/kg
CN=C(O)O/N=C1/SCOC1C (stereo not given)	12 mg/kg
c1ccc([Se]c2ccccc2)cc1	360 mg/kg
Nc1ccccc1SCc1ncon1	79.4 mg/kg and 63 mg/kg
C=COC	4900 mg/kg
CC(C)N1CCCC1=O	2900 mg/kg
CCOc1ccccc1C(N)=O	2200 mg/kg
CCCC(=O)N(C)C(=O)Oc1cc(C)cc(C(C)C)c1	1220 mg/kg
CNC(=O)Oc1cc(C(C)C)ccc1Cl	21 mg/kg
FC(F)(F)c1nc2c(Br)c(Cl)c(Cl)cc2[nH]1	2.21 mg/kg
CNC[C@H](O)c1ccc(O)c(O)c1	30 mg/kg and 24 mg/kg
CC(Br)C=CCl (stereo not given)	74 mg/kg
O=C(NC[P+](CO)(CO)CO)NC[P+](CO)(CO)CO	245 mg/kg
O=C(O)c1c(Cl)ccc(Cl)c1O	1560 mg/kg

SMILES	LD50
CC(C)CCOC(=O)c1ccccc1	6330 mg/kg
O=S1(=O)CCC(NC(=S)S)C1 (stereo not given)	1700 mg/kg
CCSC(C)CC1CC(=O)C(/C(CC)=N/OC/C=C/Cl)=C(O)C1 (stereo not given)	1360 mg/kg
Cc1cc(OC(=O)N(C)C)n(-c2ccccc2)n1	62 mg/kg
CC(C(=O)O)c1ccc2c(c1)CC(=O)c1ccccc1S2 (stereo not given)	425 mg/kg
O=C(O)c1cccc(O)c1O	1800 mg/kg
CC(=O)Nc1ccc(S(=O)(=O)Nc2cc(C)on2)cc1	8400 mg/kg
O=[N+]([O-])C=C1SCCN1Cc1ccccc1	1000 mg/kg
CCOP(=O)(OC=C(Cl)Cl)OCC(Cl)CCl (stereo not given)	66 mg/kg
FC(Cl)(Cl)c1ccccc1	450 mg/kg
CCC1OCCSC1=NOC(=O)NC (stereo not given)	19 mg/kg
Nc1ccc(Oc2ccc(N)cc2)cc1	725 mg/kg
NS(=O)(=O)c1cc2c(cc1Cl)N=CNS2(=O)=O	10000 mg/kg
CCSCc1ccccc1OC(=O)NC	200 mg/kg
CCOP(=O)(OC=C(Cl)Cl)OCCCl (stereo not given)	5 mg/kg
CC(=Cc1ccccc1)CC(=O)N(CCO)CCO	1500 mg/kg
Cc1ccccc1OCC(O)CN(NC=NC(=O)c1ccccc1)C(C)C (stereo not given)	2930 mg/kg
C[C@@H](N)[C@@H](O)c1ccccc1	1490 mg/kg
CN1CCC(OC(=O)COc2ccc(Cc3ccc(Cl)cc3)cc2)CC1	1900 mg/kg
CSC(C)(C)C=NOC(=O)N(C)SN1CCOCC1	1.2 mg/kg
COc1ccc(CC2CNC(=O)N2)cc1OC1CCCC1 (stereo not given)	600 mg/kg
CCCCC(CC)CN (stereo not given)	450 mg/kg
Sc1c(Cl)c(Cl)c(Cl)c(Cl)c1Cl	11900 mg/kg
O=[N+]([O-])c1cccc(S(=O)(=O)O)c1	11000 mg/kg
CCOP(=S)(OCC)SCn1nc(CC)ccc1=O	18.8 mg/kg

SMILES	LD50
CCCCOC(=O)COc1ccc(Cl)cc1C	914 mg/kg
CC(C)(C)NCCC(O)c1cc(C(F)(F)F)nc2c(C(F)(F)F)cccc12 (stereo not given)	2090 mg/kg
OCC1(CO)CC=CCC1	1750 mg/kg
Cc1cc(Cl)ccc1OCC(=O)OCCCCCC(C)C	700 mg/kg
CCC1NC(=O)c2ccccc2O1 (stereo not given)	1310 mg/kg
Cc1cnc(C)cn1	1020 mg/kg
NC(=S)SSC(N)=S	1950 mg/kg
CCNc1nc(NC(C)CC)nc(OC)n1 (stereo not given)	1000 mg/kg
C=CC(CCC(=O)O)OC(C)=O (stereo not given)	543 mg/kg
C=C1C(=O)O[C@@H]2C[C@@H](C)[C@@H]3C=CC(=O)[C@@]3(C)[C@@H](O)[C@H]12	125 mg/kg
Cc1csc2c(Cl)cccc12	300 mg/kg
CCOP(=O)(NC(C)=O)SC (stereo not given)	500 mg/kg
CC(C)COC(=O)c1ccccc1	5600 mg/kg
CCCN(CCC)c1c([N+](=O)[O-])cc(C(F)(F)F)cc1[N+](=O)[O-]	1930 mg/kg
CCCOC(C1=NCCCN1)c1ccccc1 (stereo not given)	625 mg/kg
CN(Sc1ccc(F)cc1)C(=O)Oc1cccc2c1OC(C)(C)C2	25 mg/kg
CC(c1ccccc1)N(C)C (stereo not given)	420 mg/kg
Cc1cccc(OC(C)C)c1N(C)C(=O)CCl	950 mg/kg
CNC(=O)ON=C1C(Cl)C2CC(C#N)C1C2 (stereo not given)	24 mg/kg
O=[N+]([O-])c1cncn1CCN1CCOCC1	1540 mg/kg
CCOC(C1=NCC(C)(C)N1)c1ccc(Cl)c(Cl)c1 (stereo not given)	110 mg/kg
Cc1cc(C)cc(Cc2ccccc2)c1	2330 mg/kg
NNc1nnc(NN)c2ccccc12	350 mg/kg and 400 mg/kg
FC(F)(F)c1nc2ccc(Br)cc2[nH]1	49 mg/kg
Cc1ccc(CN(C)N=O)cc1	400 mg/kg
